# Test system: HBV
# Test: HBV inhibition assay in HepAD38 cells (extracellular HBV DNA by direct qPCR)
# Format: cell-based, Hepatitis B virus
# Conditions: 96 hours, 8-point dose-response curve, read-out: HBV inh EC50
row,Structure (SMILES),EC50 [nM]
1,"Cc1nnc(C(=O)N2CCC3NS(=O)(=O)c4cn(C)c(C(=O)Nc5ccc(F)c(C)c5)c4OCC3C2)o1 (racemic) [Example E130, Trans-N-(4-fluoro-3-methylphenyl)-2-methyl-8-(5-methyl-1,3,4-oxadiazole-2-carbonyl)-5,5a,6,7,8,9,9a,10-octahydro-2H-pyrido[4,3-f]pyrrolo[3,4-b][1,4,5]oxathiazocine-1-carboxamide 4,4-dioxide]",< 1000
2,"Cc1cc(NC(=O)c2c3c(cn2C)S(=O)(=O)NC2CCN(C(=O)C4(C)CCCO4)CC2CO3)ccc1F (racemic) [Example E132, Trans-N-(4-fluoro-3-methylphenyl)-2-methyl-8-(2-methyltetrahydrofuran-2-carbonyl)-5,5a,6,7,8,9,9a,10-octahydro-2H-pyrido[4,3-f]pyrrolo[3,4-b][1,4,5]oxathiazocine-1-carboxamide 4,4-dioxide]",< 1000
3,"Cc1cc(NC(=O)c2c3c(cn2C)S(=O)(=O)NC2CCN(C(=O)C45CC(CO4)C5)CC2CO3)ccc1F (racemic) [Example E133, Trans-8-(2-oxabicyclo[2.1.1]hexane-1-carbonyl)-N-(4-fluoro-3-methylphenyl)-2-methyl-5,5a,6,7,8,9,9a,10-octahydro-2H-pyrido[4,3-f]pyrrolo[3,4-b][1,4,5]oxathiazocine-1-carboxamide 4,4-dioxide]",< 1000
4,"Cc1cc(NC(=O)c2c3c(cn2C)S(=O)(=O)NC2CN(C(=O)C4(C)COC4)CCC2CO3)ccc1F (racemic) [Example E141, Trans-N-(4-fluoro-3-methylphenyl)-2-methyl-7-(3-methyloxetane-3-carbonyl)-5,5a,6,7,8,9,9a,10-octahydro-2H-pyrido[3,4-f]pyrrolo[3,4-b][1,4,5]oxathiazocine-1-carboxamide 4,4-dioxide]",< 1000
5,"Cc1cc(NC(=O)c2c3c(cn2C)S(=O)(=O)NC2CN(C(=O)C45CC(CO4)C5)CCC2CO3)ccc1F (racemic) [Example E143, Trans-7-(2-oxabicyclo[2.1.1]hexane-1-carbonyl)-N-(4-fluoro-3-methylphenyl)-2-methyl-5,5a,6,7,8,9,9a,10-octahydro-2H-pyrido[3,4-f]pyrrolo[3,4-b][1,4,5]oxathiazocine-1-carboxamide 4,4-dioxide]",< 1000

# Same assay, conditions: Hepatitis B virus, 0.5 μM, 96 hours, relative to non-treated reference, read-out: Anti HBV Activity (conc μM)
row,Structure (SMILES),inhibition at 0.5 µM [%]
1,"Cn1cc2c(c1C(=O)Nc1ccc(F)c(F)c1)OC[C@@]1(O)CCC[C@H]1NS2(=O)=O (racemic) [Example E30, cis-N-(3,4-difluorophenyl)-8a-hydroxy-2-methyl-5a,6,7,8,8a,9-hexahydro-2H,5H-cyclopenta[f]pyrrolo[3,4-b][1,4,5]oxathiazocine-1-carboxamide 4,4-dioxide]",< 50

# Same assay, conditions: Hepatitis B virus, 96 hours, 8-point dose-response curve, read-out: HBV inh EC50
row,Structure (SMILES),EC50 [nM]
1,"Cc1nnc(C(=O)N2CCC3NS(=O)(=O)c4cn(C)c(C(=O)Nc5ccc(F)c(C)c5)c4OCC3C2)o1 (racemic) [Example E125, Cis-N-(4-fluoro-3-methylphenyl)-2-methyl-8-(5-methyl-1,3,4-oxadiazole-2-carbonyl)-5,5a,6,7,8,9,9a,10-octahydro-2H-pyrido[4,3-f]pyrrolo[3,4-b][1,4,5]oxathiazocine-1-carboxamide 4,4-dioxide]",< 1000
2,"Cc1cc(NC(=O)c2c3c(cn2C)S(=O)(=O)NC2CCN(C(=O)C4(C)COC4)CC2CO3)ccc1F (racemic) [Example E126, Cis-N-(4-fluoro-3-methylphenyl)-2-methyl-8-(3-methyloxetane-3-carbonyl)-5,5a,6,7,8,9,9a,10-octahydro-2H-pyrido[4,3-f]pyrrolo[3,4-b][1,4,5]oxathiazocine-1-carboxamide 4,4-dioxide]",< 1000
3,"Cc1cc(NC(=O)c2c3c(cn2C)S(=O)(=O)NC2CCN(C(=O)C4(C)CCCO4)CC2CO3)ccc1F (racemic) [Example E127, Cis-N-(4-fluoro-3-methylphenyl)-2-methyl-8-(2-methyltetrahydrofuran-2-carbonyl)-5,5a,6,7,8,9,9a,10-octahydro-2H-pyrido[4,3-f]pyrrolo[3,4-b][1,4,5]oxathiazocine-1-carboxamide 4,4-dioxide]",< 1000
4,"Cc1cc(NC(=O)c2c3c(cn2C)S(=O)(=O)NC2CCN(C(=O)C45CC(CO4)C5)CC2CO3)ccc1F (racemic) [Example E128, Cis-8-(2-oxabicyclo[2.1.1]hexane-1-carbonyl)-N-(4-fluoro-3-methylphenyl)-2-methyl-5,5a,6,7,8,9,9a,10-octahydro-2H-pyrido[4,3-f]pyrrolo[3,4-b][1,4,5]oxathiazocine-1-carboxamide 4,4-dioxide]",< 1000
5,"Cc1cc(NC(=O)c2c3c(cn2C)S(=O)(=O)NC2CCN(C(=O)c4ncoc4C)CC2CO3)ccc1F (racemic) [Example E134, Trans-N-(4-fluoro-3-methylphenyl)-2-methyl-8-(5-methyloxazole-4-carbonyl)-5,5a,6,7,8,9,9a,10-octahydro-2H-pyrido[4,3-f]pyrrolo[3,4-b][1,4,5]oxathiazocine-1-carboxamide 4,4-dioxide]",< 1000
6,"Cc1nnc(C(=O)N2CCC3COc4c(cn(C)c4C(=O)Nc4ccc(F)c(C)c4)S(=O)(=O)NC3C2)o1 (racemic) [Example E135, Cis-N-(4-fluoro-3-methylphenyl)-2-methyl-7-(5-methyl-1,3,4-oxadiazole-2-carbonyl)-5,5a,6,7,8,9,9a,10-octahydro-2H-pyrido[3,4-f]pyrrolo[3,4-b][1,4,5]oxathiazocine-1-carboxamide 4,4-dioxide]",< 1000
7,"Cc1cc(NC(=O)c2c3c(cn2C)S(=O)(=O)NC2CN(C(=O)C4(C)COC4)CCC2CO3)ccc1F (racemic) [Example E136, Cis-N-(4-fluoro-3-methylphenyl)-2-methyl-7-(3-methyloxetane-3-carbonyl)-5,5a,6,7,8,9,9a,10-octahydro-2H-pyrido[3,4-f]pyrrolo[3,4-b][1,4,5]oxathiazocine-1-carboxamide 4,4-dioxide]",< 1000
8,"Cc1cc(NC(=O)c2c3c(cn2C)S(=O)(=O)NC2CN(C(=O)C45CC(CO4)C5)CCC2CO3)ccc1F (racemic) [Example E138, Cis-7-(2-oxabicyclo[2.1.1]hexane-1-carbonyl)-N-(4-fluoro-3-methylphenyl)-2-methyl-5,5a,6,7,8,9,9a,10-octahydro-2H-pyrido[3,4-f]pyrrolo[3,4-b][1,4,5]oxathiazocine-1-carboxamide 4,4-dioxide]",< 1000
9,"Cc1cc(NC(=O)c2c3c(cn2C)S(=O)(=O)NC2CN(C(=O)c4ncoc4C)CCC2CO3)ccc1F (racemic) [Example E139, Cis-N-(4-fluoro-3-methylphenyl)-2-methyl-7-(5-methyloxazole-4-carbonyl)-5,5a,6,7,8,9,9a,10-octahydro-2H-pyrido[3,4-f]pyrrolo[3,4-b][1,4,5]oxathiazocine-1-carboxamide 4,4-dioxide]",< 1000

# Same assay, conditions: read-out: HBV inh EC50, 96 hours, 8-point dose-response curve
row,Structure (SMILES),EC50 [nM]
1,"Cc1cc(NC(=O)c2c3c(cn2C)S(=O)(=O)NC2CCN(C(=O)c4ncoc4C)CC2CO3)ccc1F (racemic) [Example E129, Cis-N-(4-fluoro-3-methylphenyl)-2-methyl-8-(5-methyloxazole-4-carbonyl)-5,5a,6,7,8,9,9a,10-octahydro-2H-pyrido[4,3-f]pyrrolo[3,4-b][1,4,5]oxathiazocine-1-carboxamide 4,4-dioxide]",< 1000

# Source: patent US11504382B2, “Tricyclic inhibitors of Hepatitis B virus” (Antios Therapeutics, Inc., priority 2018, dated 2022)
